Experimental data published in PubChem BioAssay (NCI).
Where “and” joins values, the source holds several entries; their conditions need not be identical. Equal values may be shown once.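 Exposure lasted 48 hours, with cells grown in 96-well plates and compounds tested at five concentrations. GI50 is the concentration that inhibits growth by half. The concentration for full growth arrest is given as TGI.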

What was measured:
Experiment in all cases: growth of human tumour cells (NCI), 48 h
BT-549 breast = tested on: BT-549 breast
SNB-19 CNS = tested on: SNB-19 CNS
MDA-MB-435 = tested on: MDA-MB-435
HT29 colon = tested on: HT29 colon
SF-539 CNS = tested on: SF-539 CNS
OVCAR-8 ovarian = tested on: OVCAR-8 ovarian
SNB-75 CNS = tested on: SNB-75 CNS
COLO 205 colon = tested on: COLO 205 colon
HL-60(TB) leukemia = tested on: HL-60(TB) leukemia
LOX IMVI melanoma = tested on: LOX IMVI melanoma

| Structure (SMILES) | TGI (BT-549 breast) | GI50 (SNB-19 CNS) [µM] | TGI (SNB-19 CNS) | GI50 (MDA-MB-435) [µM] | TGI (MDA-MB-435) [µM] | GI50 (HT29 colon) [µM] | TGI (HT29 colon) | GI50 (SF-539 CNS) | TGI (SF-539 CNS) | GI50 (OVCAR-8 ovarian) [µM] | TGI (OVCAR-8 ovarian) | GI50 (SNB-75 CNS) [µM] | TGI (SNB-75 CNS) | GI50 (COLO 205 colon) [µM] | TGI (COLO 205 colon) | GI50 (HL-60(TB) leukemia) [µM] | GI50 (LOX IMVI melanoma) [µM] | TGI (LOX IMVI melanoma) | GI50 (BT-549 breast) [µM] | TGI (HL-60(TB) leukemia) |
| --- | --- | --- | --- | --- | --- | --- | --- | --- | --- | --- | --- | --- | --- | --- | --- | --- | --- | --- | --- | --- |
| Cl.[O-]c1cccc2cccnc12.[O-]c1cccc2cccnc12.[O-]c1cccc2cccnc12.[O-]c1cccc2cccnc12.[Ti+4] | > 100 µM | 70.8 | > 100 µM | 11.6 | > 100 | 0.914 | 6.86 µM | 2.06 µM | 14.4 µM | 0.779 | > 31.5 µM | 9.55 | > 100 µM | 1.08 | 3.55 µM | 0.226 | 1.69 | > 88.9 µM | – | – |
| COc1ccc(-c2nsc3c2NC(=O)CC3c2cccc(F)c2)cc1 (stereo not given) | > 100 µM | 5.91 | > 100 µM | 0.827 | 4.07 | 3.11 | > 100 µM | 5.19 µM | > 100 µM | 7.54 | > 100 µM | 4.78 | 86.2 µM | 2.95 | > 100 µM | 4.21 | 6.5 | > 100 µM | 7.77 | > 100 µM |
| COC1/C=C/OC2(C)Oc3c(C)c(O)c4c(O)c(c(/C=N/N(c5ccccc5)c5ccccc5)c(O)c4c3C2=O)NC(=O)C(C)=C/C=C/C(C)C(O)C(C)C(O)C(C)C(OC(C)=O)C1C (stereo not given) | 8.83 µM | 2.64 | 12.1 µM | 1.65 | 5.05 | 1.1 | 2.63 µM | 1.44 µM | 4.7 µM | 1.8 | 7.97 µM | 1.66 | 7.18 µM | 1.73 | 6.23 µM | 1.6 | 1.04 | 2.41 µM | 2.5 | 3.58 µM |
| CN(CO)c1nc(N(C)CO)nc(N(C)CO)n1 | 43.1 µM and 36.9 µM | 29.8 | 45.3 µM and 50.4 µM | – | 40.3 | 26.3 | 71.2 µM and 144 µM | 23.6 µM and 17.2 µM | 52.4 µM and 36.9 µM | 23.6 | 55.6 µM and 38.4 µM | 16.4 | 53.3 µM and 32 µM | 20.9 | 44.1 µM and 20.9 µM | 26 | 16.2 | 36.6 µM and 26.8 µM | – | 75.1 µM and 16.5 µM |
| O=C1c2c(c3c4ccccc4n(CCCCCCN4CCOCC4)c3c3[nH]c4ccccc4c23)C(=O)N1O | 46.9 µM | 10.4 | > 100 µM | 3.72 | 20.1 | 3.39 | 18.1 µM | 1.9 µM | 4.03 µM | 2.44 | 9.39 µM | 1.36 | 7.57 µM | 4.74 | 21.9 µM | 2.49 | 0.21 | 0.736 µM | 17.9 | 8.22 µM |
| CCCn1cc(/C=N\N=C2\C(=O)Nc3ccc(C)cc32)c2ccccc21 | 6.33 µM | 4.24 | > 100 µM | 1.5 | 2.96 | 3.4 | > 100 µM | 2.69 µM | 17.1 µM | 5.41 | > 100 µM | 2.31 | 46 µM | 1.25 | 3.06 µM | 1.31 | 1.26 | 3.06 µM | 1.79 | 4.8 µM |
| CCc1nc(N)nc(N)c1-c1ccc(N(C)Cc2ccccc2)c([N+](=O)[O-])c1 | 18.4 µM | – | 37.3 µM | – | 17.9 | – | 14.6 µM | – | 9.97 µM | – | 30 µM | – | 19.5 µM | – | 8.4 µM | – | – | 22.2 µM | – | 5.88 µM |
| O=[N+]([O-])c1cc(C(F)(F)F)cc2n[se]nc12 | 7.52 µM | – | 29.5 µM | – | 4.78 | – | 21.9 µM | – | 7.33 µM | – | 4.25 µM | – | 19.8 µM | – | 4.21 µM | – | – | 14.4 µM | – | 4.02 µM |
| O=c1oc2ccc(I)cc2c(=O)n1-c1ccc(I)cc1F | 2.02 µM | 0.399 | > 100 µM | 0.586 | 5.6 | 3.43 | 15.3 µM | 0.484 µM | 4.29 µM | 0.704 | > 31.7 µM | 0.32 | 2.57 µM | 4.88 | 17.8 µM | 0.564 | 0.532 | 4.66 µM | 0.403 | – |
| Cc1cnc(-c2ccc(-c3ccc(NC(=O)Nc4cccc(C(F)(F)F)c4)cc3F)c3c2C(=O)NC3)[nH]1 | 49.1 µM | 17.4 | > 53.4 µM | 12.6 | > 47.5 | 0.853 | > 44.7 µM | 0.251 µM | 22.7 µM | 14.6 | > 57.8 µM | 1.29 | 25.5 µM | 0.0469 | 20.2 µM | 43.4 | 0.357 | 17.7 µM | 10.8 | > 100 µM |
| N#Cc1ccc(O)c(C2=NCC(c3ccc(-c4ccccc4)cc3)O2)c1 (stereo not given) | 16.1 µM | 0.489 | 26.4 µM | 0.665 | 51.6 | 0.866 | 24.1 µM | 0.517 µM | 11.4 µM | 0.361 | 13 µM | 0.625 | 14.4 µM | 0.349 | 14.8 µM | 0.416 | 0.0579 | 10.8 µM | 1.37 | 3.73 µM |
